From patent US10409869B2, “(R)- and (S)-1-(3-(3-N,N-dimethylaminocarbonyl)phenoxyl-4-nitrophenyl)-1-ethyl-N,N'-bis (ethylene)phosphoramidate, compositions and methods for their use and preparation” (OBI Pharma, Inc., priority 2015, dated 2019)

Tests used:
Format in all cases: in vivo, Cynomolgus monkeys
[1] = Body weight in monkeys, 2 mg/kg 30-min IV infusion; conditions: Day 1, Mean
Description: (§1) TH 3423 and TH 3424 were tested in […] naïve monkeys (1 male and one female for each compound at 2 mg/kg) with 30-min intravenous infusion, TK sampling: on Day 1 and Day 15: 0.25, 0.5, 0.75, 1 and 2 hr post infusion initiation. Serum chemistry and hematology: pre-dose (Day 1), day 5, day 8 (pre-dose), day 15 (pre-dose), day 22 and day 28. Clinical observation: Daily during the study, total 35 days. Food consumption: Daily during the study, total 35 days. Bodyweight measurement: Twice weekly for five weeks.

[2] = Serum chemistry in monkeys, 2 mg/kg 30-min IV infusion
Description: as §1

[3] = Plasma concentration and TK after 30-min IV infusion at 2 mg/kg; conditions: for AUC(0-inf) / AUC(0-t): Cynomolgus, cynomolgus monkey, plasma, iv, 2 mg/kg
Description: as §1

Compound `C[C@@H](OP(=O)(N1CC1)N1CC1)c1ccc([N+](=O)[O-])c(Oc2cccc(C(=O)N(C)C)c2)c1` (single isomer, unassigned) [TH3423] has a body weight [1] of 3.50, an A/G ([2]; female, Day 1 (pre-dose)) of 1.8 and an ALB ([2]; female, Day 1 (pre-dose)) of 42 g/L. It also gave an ALP ([2]; female, Day 1 (pre-dose)) of 205.5 U/L, an ALT ([2]; female, Day 1 (pre-dose)) of 41.7 U/L and an AST ([2]; female, Day 1 (pre-dose)) of 43.3 U/L. The BUN ([2]; female, Day 1 (pre-dose)) was 4.06 mM, the CK ([2]; female, Day 1 (pre-dose)) was 342 U/L and the CREA ([2]; female, Day 1 (pre-dose)) was 95 µM. The Ca ([2]; female, Day 1 (pre-dose)) was 2.39 mmol/L, the GLB ([2]; female, Day 1 (pre-dose)) was 24 g/L and the Glu ([2]; female, Day 1 (pre-dose)) was 6.03 mM. It also gave a K ([2]; female, Day 1 (pre-dose)) of 6.14 mmol/L, a Na ([2]; female, Day 1 (pre-dose)) of 146 mmol/L and a TBIL ([2]; female, Day 1 (pre-dose)) of 0.0 µM. It also gave a TC ([2]; female, Day 1 (pre-dose)) of 2.48 mM, a TG ([2]; female, Day 1 (pre-dose)) of 0.45 mmol/L and a TP ([2]; female, Day 1 (pre-dose)) of 66.0 g/L. The γ-GT ([2]; female, Day 1 (pre-dose)) was 41.5 U/L, the A/G ([2]; female, Day 8 (pre-dose)) was 1.3 and the ALB ([2]; female, Day 8 (pre-dose)) was 40.9 g/L. For the same compound, the ALP ([2]; female, Day 8 (pre-dose)) was 190.3 U/L, the ALT ([2]; female, Day 8 (pre-dose)) was 25.5 U/L and the AST ([2]; female, Day 8 (pre-dose)) was 57.7 U/L. For the same compound, the BUN ([2]; female, Day 8 (pre-dose)) was 7.61 mM, the CK ([2]; female, Day 8 (pre-dose)) was 126 U/L and the CREA ([2]; female, Day 8 (pre-dose)) was 120 µM. The Ca ([2]; female, Day 8 (pre-dose)) was 2.47 mmol/L, the GLB ([2]; female, Day 8 (pre-dose)) was 30.9 g/L and the Glu ([2]; female, Day 8 (pre-dose)) was 2.13 mM. For the same compound, the K ([2]; female, Day 8 (pre-dose)) was 4.83 mmol/L, the Na ([2]; female, Day 8 (pre-dose)) was 149 mmol/L and the TBIL ([2]; female, Day 8 (pre-dose)) was 0.4 µM. The TC ([2]; female, Day 8 (pre-dose)) was 3.01 mM, the TG ([2]; female, Day 8 (pre-dose)) was 1.17 mmol/L and the TP ([2]; female, Day 8 (pre-dose)) was 71.8 g/L. It also gave a γ-GT ([2]; female, Day 8 (pre-dose)) of 37.0 U/L, an A/G ([2]; female, Day 15 (pre-dose)) of 1.7 and an ALB ([2]; female, Day 15 (pre-dose)) of 34.2 g/L. The ALP ([2]; female, Day 15 (pre-dose)) was 123.6 U/L, the ALT ([2]; female, Day 15 (pre-dose)) was 21.1 U/L and the AST ([2]; female, Day 15 (pre-dose)) was 76.7 U/L. It also gave a BUN ([2]; female, Day 15 (pre-dose)) of 5.96 mM, a CK ([2]; female, Day 15 (pre-dose)) of 78 U/L and a CREA ([2]; female, Day 15 (pre-dose)) of 69 µM. It also gave a Ca ([2]; female, Day 15 (pre-dose)) of 2.36 mmol/L, a GLB ([2]; female, Day 15 (pre-dose)) of 20.7 g/L and a Glu ([2]; female, Day 15 (pre-dose)) of 2.51 mM. The K ([2]; female, Day 15 (pre-dose)) was 4.81 mmol/L, the Na ([2]; female, Day 15 (pre-dose)) was 128.17 mmol/L and the TBIL ([2]; female, Day 15 (pre-dose)) was 1.4 µM. The TC ([2]; female, Day 15 (pre-dose)) was 2.02 mM, the TG ([2]; female, Day 15 (pre-dose)) was 0.84 mmol/L and the TP ([2]; female, Day 15 (pre-dose)) was 54.9 g/L. For the same compound, the γ-GT ([2]; female, Day 15 (pre-dose)) was 29.4 U/L, the A/G ([2]; male, Day 1 (pre-dose)) was 1.8 and the ALB ([2]; male, Day 1 (pre-dose)) was 46.9 g/L. For the same compound, the ALP ([2]; male, Day 1 (pre-dose)) was 746.4 U/L, the ALT ([2]; male, Day 1 (pre-dose)) was 45.0 U/L and the AST ([2]; male, Day 1 (pre-dose)) was 37.0 U/L. It also gave a BUN ([2]; male, Day 1 (pre-dose)) of 3.47 mM, a CK ([2]; male, Day 1 (pre-dose)) of 146 U/L and a CREA ([2]; male, Day 1 (pre-dose)) of 66 µM. It also gave a Ca ([2]; male, Day 1 (pre-dose)) of 2.54 mmol/L, a GLB ([2]; male, Day 1 (pre-dose)) of 26 g/L and a Glu ([2]; male, Day 1 (pre-dose)) of 3.12 mM. The K ([2]; male, Day 1 (pre-dose)) was 6.92 mmol/L, the Na ([2]; male, Day 1 (pre-dose)) was 143 mmol/L and the TBIL ([2]; male, Day 1 (pre-dose)) was 5.2 µM. It also gave a TC ([2]; male, Day 1 (pre-dose)) of 2.1 mM, a TG ([2]; male, Day 1 (pre-dose)) of 0.24 mmol/L and a TP ([2]; male, Day 1 (pre-dose)) of 72.9 g/L. For the same compound, the γ-GT ([2]; male, Day 1 (pre-dose)) was 78.4 U/L, the A/G ([2]; male, Day 8 (pre-dose)) was 1.1 and the ALB ([2]; male, Day 8 (pre-dose)) was 39.1 g/L. For the same compound, the ALP ([2]; male, Day 8 (pre-dose)) was 540.3 U/L, the ALT ([2]; male, Day 8 (pre-dose)) was 21.0 U/L and the AST ([2]; male, Day 8 (pre-dose)) was 40.8 U/L. It also gave a BUN ([2]; male, Day 8 (pre-dose)) of 26.8 mM, a CK ([2]; male, Day 8 (pre-dose)) of 153 U/L and a CREA ([2]; male, Day 8 (pre-dose)) of 141 µM. It also gave a Ca ([2]; male, Day 8 (pre-dose)) of 2.55 mmol/L, a GLB ([2]; male, Day 8 (pre-dose)) of 37.1 g/L and a Glu ([2]; male, Day 8 (pre-dose)) of 5.28 mM. It also gave a K ([2]; male, Day 8 (pre-dose)) of 5.86 mmol/L, a Na ([2]; male, Day 8 (pre-dose)) of 112 mmol/L and a TBIL ([2]; male, Day 8 (pre-dose)) of 9.8 µM. It also gave a TC ([2]; male, Day 8 (pre-dose)) of 1.72 mM, a TG ([2]; male, Day 8 (pre-dose)) of 2.25 mmol/L and a TP ([2]; male, Day 8 (pre-dose)) of 76.2 g/L. For the same compound, the γ-GT ([2]; male, Day 8 (pre-dose)) was 37.6 U/L, the Plasma concentration ([3]; 2 hr, female) was “BQL” and the AUC(0-inf) ([3]; both sexes, Mean) was 770 ng·h/mL. The AUC(0-t) ([3]; both sexes, Mean) was 766 ng·h/mL, the AUC(0-inf) ([3]; female) was 766 ng·h/mL and the AUC(0-t) ([3]; female) was 758 ng·h/mL. The AUC(0-inf) ([3]; male) was 774 ng·h/mL and the AUC(0-t) ([3]; male) was 773 ng·h/mL.
